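Compound exposure: 48 hours, 5 concentrations, 96-well plates. GI50 is the concentration that inhibits growth by half.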 Active and inactive are the calls of the source. Rule as the data show it: active = GI50 up to about 1.1 µM and inactive = higher.
How the values were obtained:
Assay in all cases: growth of human tumour cells (NCI), 48 h
EKVX = system: EKVX
NCI-H226 = system: NCI-H226
MOLT-4 = system: MOLT-4
SK-OV-3 = system: SK-OV-3
SK-MEL-2 = system: SK-MEL-2
SK-MEL-28 = system: SK-MEL-28
SK-MEL-5 = system: SK-MEL-5
COLO 205 = system: COLO 205
786-0 = system: 786-0
HCT-116 = system: HCT-116
A549 = system: A549
U-251 = system: U-251
SN12C = system: SN12C
M14 = system: M14
BT-549 = system: BT-549
SNB-75 = system: SNB-75
SF-295 = system: SF-295
HOP-62 = system: HOP-62
SW-620 = system: SW-620
HOP-92 = system: HOP-92
NCI-H522 = system: NCI-H522
T47D = system: T47D
UACC-257 = system: UACC-257
Hs-578T = system: Hs-578T
HCT-15 = system: HCT-15
IGROV-1 = system: IGROV-1
K562 = system: K562
TK-10 = system: TK-10
NCI-H460 = system: NCI-H460
SNB-19 = system: SNB-19
HT-29 = system: HT-29
MDA-MB-435 = system: MDA-MB-435
CAKI-1 = system: CAKI-1
SF-268 = system: SF-268
MDA-MB-231 = system: MDA-MB-231
SR = system: SR
ACHN = system: ACHN
KM12 = system: KM12
PC-3 = system: PC-3
OVCAR-4 = system: OVCAR-4
NCI/ADR-RES = system: NCI/ADR-RES
RXF 393 = system: RXF 393
UACC-62 = system: UACC-62
SF-539 = system: SF-539
OVCAR-8 = system: OVCAR-8
RPMI-8226 = system: RPMI-8226
LOX IMVI = system: LOX IMVI
UO-31 = system: UO-31
MDA-N = system: MDA-N
HL-60 = system: HL-60
OVCAR-5 = system: OVCAR-5
CCRF-CEM = system: CCRF-CEM
HCC 2998 = system: HCC 2998
MCF7 = system: MCF7
Malme-3M = system: Malme-3M
DU-145 = system: DU-145

CCN(CC)c1ccc2cc(C(N)=S)c(=N)oc2c1 was tested, and the GI50 (EKVX) was > 100 µM (inactive), the GI50 (NCI-H226) was > 100 µM (inactive) and the GI50 (MOLT-4) was > 100 µM (inactive). For the same molecule, the GI50 (SK-OV-3) was > 100 µM (inactive), the GI50 (SK-MEL-2) was > 100 µM (inactive) and the GI50 (SK-MEL-28) was > 100 µM (inactive). For the same molecule, the GI50 (SK-MEL-5) was > 100 µM (inactive), the GI50 (COLO 205) was > 100 µM (inactive) and the GI50 (786-0) was > 100 µM (inactive). The GI50 (HCT-116) was > 100 µM (inactive), the GI50 (A549) was > 100 µM (inactive) and the GI50 (U-251) was > 100 µM (inactive). The GI50 (SN12C) was > 100 µM (inactive), the GI50 (M14) was > 100 µM (inactive) and the GI50 (BT-549) was 37.9 µM (inactive). For the same molecule, the GI50 (SNB-75) was > 100 µM (inactive), the GI50 (SF-295) was > 100 µM (inactive) and the GI50 (HOP-62) was > 100 µM (inactive). The GI50 (SW-620) was > 100 µM (inactive), the GI50 (HOP-92) was > 100 µM (inactive) and the GI50 (NCI-H522) was > 100 µM (inactive). The GI50 (T47D) was > 100 µM (inactive), the GI50 (UACC-257) was > 100 µM (inactive) and the GI50 (Hs-578T) was > 100 µM (inactive). For the same molecule, the GI50 (HCT-15) was over 100 µM, the GI50 (IGROV-1) was > 100 µM (inactive) and the GI50 (K562) was > 100 µM (inactive). For the same molecule, the GI50 (TK-10) was > 100 µM (inactive), the GI50 (NCI-H460) was > 100 µM (inactive) and the GI50 (SNB-19) was > 100 µM (inactive). The GI50 (HT-29) was > 100 µM (inactive), the GI50 (MDA-MB-435) was > 100 µM (inactive) and the GI50 (CAKI-1) was > 100 µM (inactive). For the same molecule, the GI50 (SF-268) was > 100 µM (inactive), the GI50 (MDA-MB-231) was > 100 µM (inactive) and the GI50 (SR) was > 100 µM (inactive). For the same molecule, the GI50 (ACHN) was > 100 µM (inactive), the GI50 (KM12) was > 100 µM (inactive) and the GI50 (PC-3) was > 100 µM (inactive). The GI50 (OVCAR-4) was > 100 µM (inactive), the GI50 (NCI/ADR-RES) was > 100 µM (inactive) and the GI50 (RXF 393) was > 100 µM (inactive). The GI50 (UACC-62) was > 100 µM (inactive), the GI50 (SF-539) was > 100 µM (inactive) and the GI50 (OVCAR-8) was > 100 µM (inactive). For the same molecule, the GI50 (RPMI-8226) was > 100 µM (inactive), the GI50 (LOX IMVI) was > 100 µM (inactive) and the GI50 (UO-31) was > 100 µM (inactive). For the same molecule, the GI50 (MDA-N) was > 100 µM (inactive), the GI50 (HL-60) was > 100 µM (inactive) and the GI50 (OVCAR-5) was > 100 µM (inactive). The GI50 (CCRF-CEM) was > 100 µM (inactive), the GI50 (HCC 2998) was > 100 µM (inactive) and the GI50 (MCF7) was > 100 µM (inactive). For the same molecule, the GI50 (Malme-3M) was 87.9 µM (inactive) and the GI50 (DU-145) was > 100 µM (inactive).

— ChEMBL document CHEMBL1201862, “PubChem BioAssay data set” (2004)
